This note sets out measurements from ChEMBL document CHEMBL4028801, “A multifactorial approach to hepatobiliary transporter assessment enables improved therapeutic compound development” (Toxicol Sci, 2013).

Series [1] has as its target ATP-binding cassette sub-family C member 2 (Homo sapiens, UniProt Q92887). Put plainly: Inhibition of human MRP2 overexpressed in Sf9 cell membrane vesicles assessed as uptake of [3H]-estradiol-17beta-D-glucuronide in presence of ATP and GSH measured after 20 mins by membrane vesicle transport assay.
For series [2], the target named is ATP-binding cassette sub-family C member 3 (Homo sapiens, UniProt O15438). As to the kind of experiment: Inhibition of human MRP3 overexpressed in Sf9 insect cell membrane vesicles assessed as uptake of [3H]-estradiol-17beta-D-glucuronide in presence of ATP and GSH measured after 10 mins by membrane vesicle transport assay. Format: ADME, cell-based.
Series [3] addresses T1, ATP-binding cassette sub-family C member 4 (Homo sapiens, UniProt O15439).
T1 sequence (O15439 whole entry): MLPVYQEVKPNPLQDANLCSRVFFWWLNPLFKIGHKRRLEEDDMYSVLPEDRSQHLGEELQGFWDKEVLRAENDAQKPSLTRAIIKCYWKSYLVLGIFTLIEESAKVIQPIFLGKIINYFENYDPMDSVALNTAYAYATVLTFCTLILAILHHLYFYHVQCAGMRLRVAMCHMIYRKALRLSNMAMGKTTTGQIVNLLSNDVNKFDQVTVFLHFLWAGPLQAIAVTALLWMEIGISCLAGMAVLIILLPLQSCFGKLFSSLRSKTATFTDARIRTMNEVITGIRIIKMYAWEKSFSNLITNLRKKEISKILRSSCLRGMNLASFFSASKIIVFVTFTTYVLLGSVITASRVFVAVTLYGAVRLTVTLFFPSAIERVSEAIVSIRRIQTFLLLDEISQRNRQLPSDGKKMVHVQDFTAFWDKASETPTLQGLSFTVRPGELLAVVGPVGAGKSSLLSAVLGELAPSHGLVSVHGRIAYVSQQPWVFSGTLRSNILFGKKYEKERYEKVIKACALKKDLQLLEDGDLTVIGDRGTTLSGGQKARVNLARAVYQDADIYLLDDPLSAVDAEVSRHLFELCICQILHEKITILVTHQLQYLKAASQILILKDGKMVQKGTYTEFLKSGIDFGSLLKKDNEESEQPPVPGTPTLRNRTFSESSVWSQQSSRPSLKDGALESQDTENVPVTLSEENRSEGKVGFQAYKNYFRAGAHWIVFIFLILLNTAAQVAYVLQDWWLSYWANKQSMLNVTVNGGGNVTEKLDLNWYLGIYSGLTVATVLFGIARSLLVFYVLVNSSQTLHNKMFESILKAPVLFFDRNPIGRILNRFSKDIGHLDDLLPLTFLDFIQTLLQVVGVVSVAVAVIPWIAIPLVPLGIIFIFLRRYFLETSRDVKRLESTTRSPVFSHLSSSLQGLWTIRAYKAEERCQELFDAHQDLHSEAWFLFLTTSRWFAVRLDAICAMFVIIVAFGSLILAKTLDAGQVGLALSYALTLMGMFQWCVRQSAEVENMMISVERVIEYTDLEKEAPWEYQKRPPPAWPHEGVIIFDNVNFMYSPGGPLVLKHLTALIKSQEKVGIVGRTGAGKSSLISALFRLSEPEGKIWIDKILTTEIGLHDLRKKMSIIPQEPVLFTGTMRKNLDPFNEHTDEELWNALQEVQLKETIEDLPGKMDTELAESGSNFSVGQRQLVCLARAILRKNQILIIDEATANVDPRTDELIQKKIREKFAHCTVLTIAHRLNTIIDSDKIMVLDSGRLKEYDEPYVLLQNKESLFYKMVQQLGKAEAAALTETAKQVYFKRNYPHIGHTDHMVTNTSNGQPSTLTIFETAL
As to the kind of experiment: Inhibition of human MRP4 overexpressed in Sf9 cell membrane vesicles assessed as uptake of [3H]-estradiol-17beta-D-glucuronide in presence of ATP and GSH measured after 20 mins by membrane vesicle transport assay. It counts as ADME, cell-based.

A short description of series [4]: AUC in human at 1250 mg, po QD after 24 hrs. Format: ADME, organism-based. Also on record: time < 24 hr, dose 1250 mg, route oral. The conditions noted are these: in vivo.
A short description of series [5]: Drug concentration at steady state in human at 1250 mg, po QD after 24 hrs. Format: ADME, organism-based. The settings on record: in vivo, read-out: Css.
Series [6] in a line: Ratio of drug concentration at steady state in human at 1250 mg, po QD after 24 hrs to IC50 for human BSEP overexpressed in Sf9 insect cells. The conditions noted are these: in vivo. Format: ADME, organism-based.
For a further series, the target named is Bile salt export pump (Homo sapiens, UniProt O95342). As to the kind of experiment: Inhibition of human BSEP overexpressed in Sf9 cell membrane vesicles assessed as uptake of [3H]-taurocholate in presence of ATP measured after 15 to 20 mins by membrane vesicle transport assay. Format: ADME, cell-based.
The nature of series [7]: AUC in human at 2 g, po QD after 24 hrs. Also on record: dose 2 g, time < 24 hr, route oral. It counts as ADME, organism-based. The conditions noted are these: in vivo.
A short description of series [8]: Drug concentration at steady state in human at 2 g, po QD after 24 hrs. Format: ADME, organism-based. The conditions noted are these: in vivo, read-out: Css.
Series [9] is described as follows: Ratio of drug concentration at steady state in human at 2 g, po QD after 24 hrs to IC50 for human BSEP overexpressed in Sf9 insect cells. The conditions noted are these: in vivo. Format: ADME, organism-based.
Series [10] is described as follows: AUC in human at 400 to 800 mg, po QD used as formulation with ritonavir measured after 24 hrs. It counts as ADME, organism-based. The settings on record: in vivo.
Series [11] can be described thus: Drug concentration at steady state in human at 400 to 800 mg, po QD used as formulation with ritonavir measured after 24 hrs. It counts as ADME, organism-based. The settings on record: in vivo, read-out: Css.
Series [12] can be described thus: Ratio of drug concentration at steady state in human at 400 to 800 mg, po QD used as formulation with ritonavir measured after 24 hrs to IC50 for human BSEP overexpressed in Sf9 insect cells. It counts as ADME, organism-based. The conditions noted are these: in vivo.
A short description of series [13]: Ratio of drug concentration at steady state in human at 400 to 800 mg, po QD used as formulation with ritonavir measured after 24 hrs to IC50 for human MRP3 overexpressed in Sf9 insect cells. It counts as ADME, organism-based. The conditions noted are these: in vivo.
The nature of series [14]: Ratio of drug concentration at steady state in human at 400 to 800 mg, po QD used as formulation with ritonavir measured after 24 hrs to IC50 for human MRP4 overexpressed in Sf9 insect cells. The settings on record: in vivo. It counts as ADME, organism-based.
A short description of series [15]: AUC in human at 150 to 300 mg, po QD after 24 hrs. It counts as ADME, organism-based. The settings on record: in vivo.
A short description of series [16]: Drug concentration at steady state in human at 150 to 300 mg, po QD after 24 hrs. Format: ADME, organism-based. The settings on record: in vivo, read-out: Css.
The nature of series [17]: Ratio of drug concentration at steady state in human at 150 to 300 mg, po QD after 24 hrs to IC50 for human BSEP overexpressed in Sf9 insect cells. The conditions noted are these: in vivo. It counts as ADME, organism-based.
Series [18] is described as follows: Ratio of drug concentration at steady state in human at 150 to 300 mg, po QD after 24 hrs to IC50 for human MRP3 overexpressed in Sf9 insect cells. The settings on record: in vivo. Format: ADME, organism-based.
Series [19] in a line: Ratio of drug concentration at steady state in human at 150 to 300 mg, po QD after 24 hrs to IC50 for human MRP4 overexpressed in Sf9 insect cells. Format: ADME, organism-based. The settings on record: in vivo.

ATP-binding cassette sub-family C member 2, sequence (Q92887 whole entry): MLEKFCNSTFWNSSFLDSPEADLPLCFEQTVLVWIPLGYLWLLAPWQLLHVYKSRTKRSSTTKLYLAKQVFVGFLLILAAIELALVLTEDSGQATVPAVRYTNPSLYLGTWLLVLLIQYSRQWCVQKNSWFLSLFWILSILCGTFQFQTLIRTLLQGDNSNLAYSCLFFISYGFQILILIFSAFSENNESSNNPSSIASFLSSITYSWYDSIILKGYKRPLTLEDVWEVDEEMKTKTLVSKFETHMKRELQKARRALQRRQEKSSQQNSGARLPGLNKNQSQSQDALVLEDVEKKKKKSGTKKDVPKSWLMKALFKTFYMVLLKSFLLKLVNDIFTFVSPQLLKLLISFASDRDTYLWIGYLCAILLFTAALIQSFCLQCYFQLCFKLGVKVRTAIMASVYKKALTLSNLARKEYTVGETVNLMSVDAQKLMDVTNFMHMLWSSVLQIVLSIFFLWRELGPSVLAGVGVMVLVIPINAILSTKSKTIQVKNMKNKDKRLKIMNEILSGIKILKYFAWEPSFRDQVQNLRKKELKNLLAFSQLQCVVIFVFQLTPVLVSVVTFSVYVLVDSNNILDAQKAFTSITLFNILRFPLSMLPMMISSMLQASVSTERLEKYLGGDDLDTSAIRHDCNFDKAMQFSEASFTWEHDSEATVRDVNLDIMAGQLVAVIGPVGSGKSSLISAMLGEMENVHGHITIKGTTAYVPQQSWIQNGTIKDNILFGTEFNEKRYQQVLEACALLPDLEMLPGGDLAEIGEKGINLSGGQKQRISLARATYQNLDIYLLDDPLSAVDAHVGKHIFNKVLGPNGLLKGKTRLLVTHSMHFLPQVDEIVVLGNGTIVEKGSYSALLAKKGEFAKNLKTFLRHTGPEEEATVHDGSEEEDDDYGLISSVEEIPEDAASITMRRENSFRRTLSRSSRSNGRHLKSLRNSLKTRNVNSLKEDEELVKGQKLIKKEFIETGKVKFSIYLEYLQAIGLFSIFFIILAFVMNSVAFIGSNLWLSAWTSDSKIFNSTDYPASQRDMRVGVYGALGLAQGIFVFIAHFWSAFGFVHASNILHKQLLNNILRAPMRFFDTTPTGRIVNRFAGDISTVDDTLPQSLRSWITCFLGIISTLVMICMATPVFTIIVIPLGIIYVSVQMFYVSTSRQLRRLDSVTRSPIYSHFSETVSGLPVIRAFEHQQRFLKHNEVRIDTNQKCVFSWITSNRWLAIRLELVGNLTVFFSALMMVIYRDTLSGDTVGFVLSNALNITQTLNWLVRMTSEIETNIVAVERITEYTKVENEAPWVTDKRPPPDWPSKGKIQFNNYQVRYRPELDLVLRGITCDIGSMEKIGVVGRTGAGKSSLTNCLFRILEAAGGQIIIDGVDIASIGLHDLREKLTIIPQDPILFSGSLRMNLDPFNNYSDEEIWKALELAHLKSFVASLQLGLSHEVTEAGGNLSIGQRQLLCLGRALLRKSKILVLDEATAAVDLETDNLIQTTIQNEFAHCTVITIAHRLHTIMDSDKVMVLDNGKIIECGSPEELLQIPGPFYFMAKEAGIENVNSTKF
ATP-binding cassette sub-family C member 3, sequence (O15438 whole entry): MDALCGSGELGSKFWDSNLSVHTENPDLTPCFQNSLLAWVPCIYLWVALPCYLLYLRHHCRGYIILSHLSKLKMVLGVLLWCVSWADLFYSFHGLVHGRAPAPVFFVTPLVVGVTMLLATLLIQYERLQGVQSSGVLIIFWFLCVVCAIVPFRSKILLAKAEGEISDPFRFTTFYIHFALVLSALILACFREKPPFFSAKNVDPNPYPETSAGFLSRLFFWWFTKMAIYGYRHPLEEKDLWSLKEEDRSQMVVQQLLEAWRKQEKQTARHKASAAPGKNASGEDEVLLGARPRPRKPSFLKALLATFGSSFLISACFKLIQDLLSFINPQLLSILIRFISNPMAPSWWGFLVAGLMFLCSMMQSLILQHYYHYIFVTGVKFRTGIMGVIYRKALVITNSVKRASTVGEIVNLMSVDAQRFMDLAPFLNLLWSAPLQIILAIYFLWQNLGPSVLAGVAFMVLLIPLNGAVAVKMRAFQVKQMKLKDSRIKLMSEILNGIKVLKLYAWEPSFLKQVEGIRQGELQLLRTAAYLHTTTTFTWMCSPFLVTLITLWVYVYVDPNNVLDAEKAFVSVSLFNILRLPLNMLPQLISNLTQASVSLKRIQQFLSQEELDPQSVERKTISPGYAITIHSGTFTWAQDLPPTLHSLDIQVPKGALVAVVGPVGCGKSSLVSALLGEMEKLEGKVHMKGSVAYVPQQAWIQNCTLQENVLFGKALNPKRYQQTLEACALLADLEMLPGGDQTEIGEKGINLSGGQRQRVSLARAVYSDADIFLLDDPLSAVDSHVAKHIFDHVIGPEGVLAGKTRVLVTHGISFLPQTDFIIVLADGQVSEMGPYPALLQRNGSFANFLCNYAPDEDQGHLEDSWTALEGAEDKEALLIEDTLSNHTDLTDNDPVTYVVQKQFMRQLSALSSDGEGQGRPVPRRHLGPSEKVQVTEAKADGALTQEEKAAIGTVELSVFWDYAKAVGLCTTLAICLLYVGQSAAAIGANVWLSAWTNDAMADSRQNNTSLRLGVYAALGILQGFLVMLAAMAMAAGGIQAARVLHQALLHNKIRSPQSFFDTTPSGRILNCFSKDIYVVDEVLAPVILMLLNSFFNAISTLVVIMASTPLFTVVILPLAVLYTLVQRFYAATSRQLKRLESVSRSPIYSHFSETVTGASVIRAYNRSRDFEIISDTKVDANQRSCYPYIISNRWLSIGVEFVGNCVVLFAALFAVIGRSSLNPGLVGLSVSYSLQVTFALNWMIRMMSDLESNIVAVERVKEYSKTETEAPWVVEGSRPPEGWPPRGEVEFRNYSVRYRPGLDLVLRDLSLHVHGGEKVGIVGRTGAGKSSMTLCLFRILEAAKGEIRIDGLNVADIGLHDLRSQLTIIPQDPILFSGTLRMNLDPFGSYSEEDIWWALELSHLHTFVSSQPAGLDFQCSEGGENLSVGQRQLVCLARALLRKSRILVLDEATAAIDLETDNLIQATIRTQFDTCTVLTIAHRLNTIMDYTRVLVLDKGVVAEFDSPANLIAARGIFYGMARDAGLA
Bile salt export pump, sequence (O95342 whole entry): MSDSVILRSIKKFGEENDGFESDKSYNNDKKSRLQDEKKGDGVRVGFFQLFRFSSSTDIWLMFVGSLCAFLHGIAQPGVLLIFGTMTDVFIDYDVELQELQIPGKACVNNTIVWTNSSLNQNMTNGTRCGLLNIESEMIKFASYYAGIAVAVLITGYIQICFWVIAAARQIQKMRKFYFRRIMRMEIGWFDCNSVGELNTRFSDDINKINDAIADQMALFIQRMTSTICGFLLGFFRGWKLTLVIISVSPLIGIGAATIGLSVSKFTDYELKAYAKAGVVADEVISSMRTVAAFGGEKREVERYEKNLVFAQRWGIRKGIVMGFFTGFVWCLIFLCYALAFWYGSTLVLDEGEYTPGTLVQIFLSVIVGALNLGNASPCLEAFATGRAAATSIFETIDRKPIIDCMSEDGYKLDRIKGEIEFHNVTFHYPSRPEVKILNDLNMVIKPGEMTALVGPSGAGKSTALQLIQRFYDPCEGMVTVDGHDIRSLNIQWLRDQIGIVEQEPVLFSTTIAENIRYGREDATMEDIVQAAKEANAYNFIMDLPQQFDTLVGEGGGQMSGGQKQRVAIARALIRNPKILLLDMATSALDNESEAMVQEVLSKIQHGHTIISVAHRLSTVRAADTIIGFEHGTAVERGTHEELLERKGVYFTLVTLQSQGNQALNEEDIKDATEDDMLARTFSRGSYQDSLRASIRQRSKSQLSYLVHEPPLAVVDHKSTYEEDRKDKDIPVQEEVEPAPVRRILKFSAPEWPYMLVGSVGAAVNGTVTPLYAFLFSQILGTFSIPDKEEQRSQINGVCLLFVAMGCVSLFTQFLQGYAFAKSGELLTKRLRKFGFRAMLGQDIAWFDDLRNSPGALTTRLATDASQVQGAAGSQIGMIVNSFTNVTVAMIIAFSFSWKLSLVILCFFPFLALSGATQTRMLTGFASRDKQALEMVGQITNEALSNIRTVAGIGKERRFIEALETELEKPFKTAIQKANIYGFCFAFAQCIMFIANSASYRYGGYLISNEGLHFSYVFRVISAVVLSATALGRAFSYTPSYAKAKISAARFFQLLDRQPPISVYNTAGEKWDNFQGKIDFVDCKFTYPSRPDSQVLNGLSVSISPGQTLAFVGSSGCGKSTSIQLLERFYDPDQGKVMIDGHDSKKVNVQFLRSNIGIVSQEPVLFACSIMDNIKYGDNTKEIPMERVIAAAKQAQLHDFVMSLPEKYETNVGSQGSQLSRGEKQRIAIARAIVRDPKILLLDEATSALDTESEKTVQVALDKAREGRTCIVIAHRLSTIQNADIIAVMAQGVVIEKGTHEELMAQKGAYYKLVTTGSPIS

Usually IC50 stands for the concentration needed to halve the response being measured. As a reminder, the AUC is concentration integrated over time. Read a low AUC as less exposure. In the case of `CS(=O)(=O)CCNCc1ccc(-c2ccc3ncnc(Nc4ccc(OCc5cccc(F)c5)c(Cl)c4)c3c2)o1.Cc1ccc(S(=O)(=O)O)cc1`, the half-maximal inhibitory concentration (IC50) in series [1], in series [2] and in series [3] was over 133 µM throughout. In series [4], this compound returned an AUC at 24 h of 62.3 µM·h. Moreover, in series [5], the concentration at 24 h was found to be 2600 nM. The Ratio in series [6] was determined as 0.4.

With `CCOC(=O)C(C)(C)Oc1ccc(Cl)cc1` [CLOFIBRATE], the IC50 on Bile salt export pump is 71 µM; in [1] it was over 133 µM; in [2] it was over 133 µM; in [3], over 133 µM. The AUC at 24 h in [7] was determined as 649 µM·h. Also, the concentration at 24 h in series [8] is 27.1 µM. Further, in [9], the Ratio came out at 0.381.

For the compound `Cc1cccc(C)c1OCC(=O)N[C@@H](Cc1ccccc1)[C@@H](O)C[C@H](Cc1ccccc1)NC(=O)[C@H](C(C)C)N1CCCNC1=O` [LOPINAVIR], the concentration for half-maximal inhibition (IC50) was over 133 µM in series [1], 21 µM in series [2] and 47 µM in series [3]. The same compound displayed an AUC at 24 h in series [10] of 158 µM·h. Moreover, the concentration at 24 h in series [11] was found to be 6.6 µM. Further, the Ratio in [12] was 0.381; in [13] it was 0.314; in [14], 0.14.

Consider `CCCCC1=NC2(CCCC2)C(=O)N1Cc1ccc(-c2ccccc2-c2nnn[nH]2)cc1` [IRBESARTAN], for which the 50% inhibitory concentration (IC50) was found to be 7.31 µM at Bile salt export pump, 21.1 µM in [2] and 83.2 µM in [3]. The compound also came in with an AUC at 24 h in series [15] of 52.9 µM·h. For the same compound, the concentration at 24 h in series [16] was determined as 2200 nM. The Ratio came out at 0.301 in series [17], 0.104 in [18] and 0.026 in series [19].
